Measurements: patent EP0448811A1, “New pharmaceutical composition with anti-inflammatory activity” (SCLAVO S.p.A., priority 1989, dated 1991)

What was measured:
[1] = tested on: adjuvant-induced arthritis in the rat; assay: adjuvant-induced arthritis in the rat (secondary lesion, uninjected paw volume by water plethysmometer); type: in vivo, consanguineous Lewis rats
[2] = tested on: plasma peptidase; conditions: compared with natural tuftsin (I); cited from earlier work

Substance: gThr-mLys-Pro-Arg-OH [R-T]
- effectiveness relative to natural tuftsin ([1]; administered orally): at least 10 times
- reduction in secondary lesion development ([1]; intraperitoneally (i.p.), 0.1 mg/kg, three times per week until the 38th day): appreciable reduction in secondary lesion development, which is statistically significant only during the initial days of treatment
- anti-inflammatory activity (reduction in the volume of the uninjected paw) ([1]; oral (intragastric intubation), 0.1 mg/kg, three times per week from day 0 until the 38th day, paw volume from the 14th day): considerable anti-inflammatory activity
- reduction in secondary lesion ([1]; subcutaneously (s.c.), 0.1 mg/kg, three times per week until the 38th day): no statistically significant reduction in secondary lesion
- stability towards plasma peptidase [2]: greater stability towards plasma peptidase
